ChEMBL document CHEMBL4673394, “Discovery of a Series of Pyrazinone RORγ Antagonists and Identification of the Clinical Candidate BI 730357” (ACS Med Chem Lett, 2021)

Legend:
[1] = Clearance in Wistar Han rat at 1 mg/kg, iv measured at 5 to 1440 mins relative to hepatic blood flow; type: ADME, organism-based; settings: in vivo, time 5-1440 min
[2] = Oral bioavailability in Wistar Han rat at 3 mg/kg measured at 15 to 1440 mins; type: ADME, organism-based; settings: in vivo, time 15-1440 min
[3] = Permeability in human Caco2 cells; type: ADME, cell-based; settings: Caco-2, read-out: permeability

| Structure (SMILES) | CL [1] [%] | bioavailability [2] [%] | Papp [3] [×10⁻⁶ cm/s] |
| --- | --- | --- | --- |
| CCS(=O)(=O)c1ccc(CNc2nc3cnc(-c4c(OC)ncnc4C4CC4)nc3n([C@@H](C)C3CC3)c2=O)nc1 | 56 | – | – |
| CCS(=O)(=O)c1ccc(CNc2nc3cnc(-c4c(OC)ncnc4C4CC4)nc3n([C@H](C)C3CC3)c2=O)nc1 | 44 | – | – |
| CCS(=O)(=O)c1ccc(CNc2nc3cnc(-c4c(C)ncnc4C4CC4)nc3n([C@@H](C)C3CC3)c2=O)nc1 | 23 | – | – |
| CCS(=O)(=O)c1ccc(CNc2nc3cnc(-c4c(OC)ncnc4C4CC4)nc3n([C@@H](C)C(F)(F)F)c2=O)nc1 | 10 | – | – |
| CCS(=O)(=O)c1ccc(CNc2nc3cnc(-c4c(C)ncnc4C4CC4)nc3n(C(C)C)c2=O)nc1 | 16 | 71 | – |
| CCS(=O)(=O)c1cnc(CNc2nc3cnc(-c4c(C)ncnc4C4CC4)nc3n([C@@H](C)C3CC3)c2=O)nc1 | 29 | – | – |
| CCS(=O)(=O)c1ccc(CNC(=O)N2CC(C)(C)c3nc(-c4c(OC)ncnc4C4CC4)ccc32)cc1 | 34 | 90 | – |
| Cc1ncnc(C2CC2)c1-c1ncc2nc(NCc3ccc(S(C)(=O)=O)cn3)c(=O)n([C@@H](C)C3CC3)c2n1 | 16 | 70 | 110 |
| CCS(=O)(=O)c1ccc(CNc2nc3cnc(-c4c(OC)ncnc4C4CC4)nc3n(C(C)C)c2=O)nc1 | 32 | 70 | – |
| CCS(=O)(=O)c1ccc(CNc2nc3cnc(-c4c(C)ncnc4C4CC4)nc3n([C@@H](C)C3CC3)c2=O)cn1 | 19 | 61 | – |
| CC[C@@H](C)n1c(=O)c(NCc2ccc(S(=O)(=O)CC)cn2)nc2cnc(-c3c(OC)ncnc3C3CC3)nc21 | 42 | 20 | – |
| CNS(=O)(=O)c1ccc(CNc2nc3cnc(-c4c(C)ncnc4C4CC4)nc3n([C@@H](C)C3CC3)c2=O)nc1 | 57 | – | – |
